These results are taken from patent US20260083851A1 (AVILAR THERAPEUTICS, INC., priority 2022, published 2026).

The assay addresses T1, ASGP receptor (biotinylated ASGPR) (Homo sapiens, UniProt P07306).
T1 construct: biotin (biotinylated)
T1 sequence (P07306 1-291): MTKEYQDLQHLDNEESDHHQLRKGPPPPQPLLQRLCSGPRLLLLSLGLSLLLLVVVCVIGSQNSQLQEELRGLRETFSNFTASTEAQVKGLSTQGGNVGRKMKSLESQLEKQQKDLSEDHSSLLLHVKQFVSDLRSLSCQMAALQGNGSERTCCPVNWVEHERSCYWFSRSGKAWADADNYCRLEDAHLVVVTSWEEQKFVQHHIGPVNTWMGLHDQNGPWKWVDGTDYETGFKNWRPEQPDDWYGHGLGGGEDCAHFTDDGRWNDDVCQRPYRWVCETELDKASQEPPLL
The format is binding. As to conditions: SPR, Biacore 8K, 25° C.; Table 1A; read-out: ASGPR KD. (In SPR one partner is held on a chip, and binding of the other changes the refractive index at the surface.)
For orientation: Kd means the free concentration of one partner at which half of the binding sites on the other are occupied at equilibrium, for simple one-to-one binding. Consider `O=C(O)c1cc2ccc1CCc1ccc(c(C(=O)NC[C@H]3OC[C@H](Nc4cncc(C(F)(F)F)n4)[C@@H](O)[C@H]3O)c1)CC2` [A66, 4^3-((((2R,3R,4R,5S)-3,4-dihydroxy-5-((6-(trifluoromethyl)pyrazin-2-yl)amino)tetrahydro-2H-pyran-2-yl)methyl)carbamoyl)-1,4(1,4)-dibenzenacyclohexaphane-1^2-carboxylic acid], for which the Kd was less than 10 µM.

On to `O=C(NC[C@H]1OC[C@H](Nc2cncc(C(F)(F)F)n2)[C@@H](O)[C@H]1O)c1ccc(-c2ccccc2)cn1` [A67, N-(((2R,3R,4R,5S)-3,4-dihydroxy-5-((6-(trifluoromethyl)pyrazin-2-yl)amino)tetrahydro-2H-pyran-2-yl)methyl)-5-phenylpicolinamide], for which the dissociation constant Kd was less than 10 µM.

Take `O[C@@H]1[C@H](O)[C@@H](Nc2cncc(C(F)(F)F)n2)CO[C@@H]1CN1CCCNCC1` [A68, (2R,3R,4R,5S)-2-((1,4-diazepan-1-yl)methyl)-5-((6-(trifluoromethyl)pyrazin-2-yl)amino)tetrahydro-2H-pyran-3,4-diol]: the Kd was less than 10 µM.

As for `O=C(NC[C@H]1OC[C@H](Nc2cncc(C(F)(F)F)n2)[C@@H](O)[C@H]1O)c1ccc2[nH]cnc2n1` [A69, N-(((2R,3R,4R,5S)-3,4-dihydroxy-5-((6-(trifluoromethyl)pyrazin-2-yl)amino)tetrahydro-2H-pyran-2-yl)methyl)-1H-imidazo[4,5-b]pyridine-5-carboxamide], the Kd is less than 10 µM.

`O[C@@H]1[C@H](O)[C@@H](Nc2cncc(C(F)(F)F)n2)CO[C@@H]1CN1CCCCCC1` [A70, (2R,3R,4R,5S)-2-(azepan-1-ylmethyl)-5-((6-(trifluoromethyl)pyrazin-2-yl)amino)tetrahydro-2H-pyran-3,4-diol]: the Kd was less than 10 µM.

As for `O=C(NC[C@H]1OC[C@H](Nc2cncc(C(F)(F)F)n2)[C@@H](O)[C@H]1O)c1cnc2ccccc2n1` [A71, N-(((2R,3R,4R,5S)-3,4-dihydroxy-5-((6-(trifluoromethyl)pyrazin-2-yl)amino)tetrahydro-2H-pyran-2-yl)methyl)quinoxaline-2-carboxamide], the dissociation constant Kd is less than 10 µM.

For the compound `COC(=O)c1cnc(C(=O)NC[C@H]2OC[C@H](Nc3cncc(C(F)(F)F)n3)[C@@H](O)[C@H]2O)nc1` [A72, methyl 2-((((2R,3R,4R,5S)-3,4-dihydroxy-5-((6-(trifluoromethyl)pyrazin-2-yl)amino)tetrahydro-2H-pyran-2-yl)methyl)carbamoyl)pyrimidine-5-carboxylate], the dissociation constant Kd is less than 10 µM.

For the compound `O[C@@H]1[C@H](O)[C@@H](Nc2cncc(C(F)(F)F)n2)CO[C@@H]1CN1CCCCCCC1` [A73, (2R,3R,4R,5S)-2-(azocan-1-ylmethyl)-5-((6-(trifluoromethyl)pyrazin-2-yl)amino)tetrahydro-2H-pyran-3,4-diol], the Kd is less than 10 µM.

For `O=C(NC[C@H]1OC[C@H](Nc2cncc(C(F)(F)F)n2)[C@@H](O)[C@H]1O)c1ccccn1` [A74, N-(((2R,3R,4R,5S)-3,4-dihydroxy-5-((6-(trifluoromethyl)pyrazin-2-yl)amino)tetrahydro-2H-pyran-2-yl)methyl)picolinamide], the Kd is less than 10 µM.

As to `O=C(NC[C@H]1OC[C@H](Nc2cncc(C(F)(F)F)n2)[C@@H](O)[C@H]1O)c1ncc(-c2ccccc2)cn1` [A75, N-(((2R,3R,4R,5S)-3,4-dihydroxy-5-((6-(trifluoromethyl)pyrazin-2-yl)amino)tetrahydro-2H-pyran-2-yl)methyl)-5-phenylpyrimidine-2-carboxamide], the Kd is less than 10 µM.

Take `O=C(NC[C@H]1OC[C@H](Nc2cncc(C(F)(F)F)n2)[C@@H](O)[C@H]1O)c1cnc2c(c1)CCNC2` [A76, N-(((2R,3R,4R,5S)-3,4-dihydroxy-5-((6-(trifluoromethyl)pyrazin-2-yl)amino)tetrahydro-2H-pyran-2-yl)methyl)-5,6,7,8-tetrahydro-1,7-naphthyridine-3-carboxamide]: the Kd was less than 10 µM.

Take `O=C(NC[C@H]1OC[C@H](Nc2cncc(C(F)(F)F)n2)[C@@H](O)[C@H]1O)c1ccc2c(n1)CCNC2` [A77, N-(((2R,3R,4R,5S)-3,4-dihydroxy-5-((6-(trifluoromethyl)pyrazin-2-yl)amino)tetrahydro-2H-pyran-2-yl)methyl)-5,6,7,8-tetrahydro-1,6-naphthyridine-2-carboxamide]: the Kd is less than 10 µM.

For the compound `O=C(NC[C@H]1OC[C@H](Nc2cncc(C(F)(F)F)n2)[C@@H](O)[C@H]1O)c1ncc2cc[nH]c2n1` [A78, N-(((2R,3R,4R,5S)-3,4-dihydroxy-5-((6-(trifluoromethyl)pyrazin-2-yl)amino)tetrahydro-2H-pyran-2-yl)methyl)-7H-pyrrolo[2,3-d]pyrimidine-2-carboxamide], the equilibrium dissociation constant (Kd) was less than 10 µM.

For `O=C(NC[C@H]1OC[C@H](Nc2cncc(C(F)(F)F)n2)[C@@H](O)[C@H]1O)c1cnc2[nH]cnc2c1` [A79, N-(((2R,3R,4R,5S)-3,4-dihydroxy-5-((6-(trifluoromethyl)pyrazin-2-yl)amino)tetrahydro-2H-pyran-2-yl)methyl)-3H-imidazo[4,5-b]pyridine-6-carboxamide], the Kd is less than 10 µM.

As for `O=C(NC[C@H]1OC[C@H](Nc2cncc(C(F)(F)F)n2)[C@@H](O)[C@H]1O)c1ccncc1` [A80, N-(((2R,3R,4R,5S)-3,4-dihydroxy-5-((6-(trifluoromethyl)pyrazin-2-yl)amino)tetrahydro-2H-pyran-2-yl)methyl)isonicotinamide], the Kd is less than 10 µM.

Take `O=C(NC[C@H]1OC[C@H](Nc2cncc(C(F)(F)F)n2)[C@@H](O)[C@H]1O)c1ncc2ccccc2n1` [A81, N-(((2R,3R,4R,5S)-3,4-dihydroxy-5-((6-(trifluoromethyl)pyrazin-2-yl)amino)tetrahydro-2H-pyran-2-yl)methyl)quinazoline-2-carboxamide]: the Kd is less than 10 µM.

Take `O=C(NC[C@H]1OC[C@H](Nc2cncc(C(F)(F)F)n2)[C@@H](O)[C@H]1O)c1cnc2cc[nH]c2n1` [A82, N-(((2R,3R,4R,5S)-3,4-dihydroxy-5-((6-(trifluoromethyl)pyrazin-2-yl)amino)tetrahydro-2H-pyran-2-yl)methyl)-5H-pyrrolo[2,3-b]pyrazine-3-carboxamide]: the Kd is less than 10 µM.

For `O=C(NC[C@H]1OC[C@H](Nc2cncc(C(F)(F)F)n2)[C@@H](O)[C@H]1O)c1cnc(-c2ccccc2)cn1` [A83, N-(((2R,3R,4R,5 S)-3,4-dihydroxy-5-((6-(trifluoromethyl)pyrazin-2-yl)amino)tetrahydro-2H-pyran-2-yl)methyl)-5-phenylpyrazine-2-carboxamide], the Kd is less than 10 µM.

As for `O=C(O)c1cnc(C(=O)NC[C@H]2OC[C@H](Nc3cncc(C(F)(F)F)n3)[C@@H](O)[C@H]2O)nc1` [A84, 2-((((2R,3R,4R,5S)-3,4-dihydroxy-5-((6-(trifluoromethyl)pyrazin-2-yl)amino)tetrahydro-2H-pyran-2-yl)methyl)carbamoyl)pyrimidine-5-carboxylic acid], the Kd was less than 10 µM.

Take `O[C@@H]1[C@H](O)[C@@H](Nc2cncc(C(F)(F)F)n2)CO[C@@H]1CNc1ncncn1` [A85, (2R,3R,4R,5S)-2-(((1,3,5-triazin-2-yl)amino)methyl)-5-((6-(trifluoromethyl)pyrazin-2-yl)amino)tetrahydro-2H-pyran-3,4-diol]: the Kd is less than 10 µM.

Take `O=C(NC[C@H]1OC[C@H](Nc2cncc(C(F)(F)F)n2)[C@@H](O)[C@H]1O)c1ncc2c(n1)CCNC2` [A86, N-(((2R,3R,4R,5S)-3,4-dihydroxy-5-((6-(trifluoromethyl)pyrazin-2-yl)amino)tetrahydro-2H-pyran-2-yl)methyl)-5,6,7,8-tetrahydropyrido[4,3-d]pyrimidine-2-carboxamide]: the Kd is less than 10 µM.

Take `[N-]=[N+]=NCCCCCC(=O)NC(COCCC(=O)NCCOCCOCCOCCOC[C@H]1OC[C@H](Nc2cncc(C(F)(F)F)n2)[C@@H](O)[C@H]1O)(COCCC(=O)NCCOCCOCCOCCOC[C@H]1OC[C@H](Nc2cncc(C(F)(F)F)n2)[C@@H](O)[C@H]1O)COCCC(=O)NCCOCCOCCOCCOC[C@H]1OC[C@H](Nc2cncc(C(F)(F)F)n2)[C@@H](O)[C@H]1O` [A87, 3,3′-((2-(6-azidohexanamido)-2-(1-((2R,3R,4R,5S)-3,4-dihydroxy-5-((6-(trifluoromethyl)pyrazin-2-yl)amino)tetrahydro-2H-pyran-2-yl)-15-oxo-2,5,8,11,18-pentaoxa-14-azanonadecan-19-yl)propane-1,3-diyl)bis(oxy))bis(N-(1-((2R,3R,4R,5S)-3,4-dihydroxy-5-((6-(trifluoromethyl)pyrazin-2-yl)amino)tetrahydro-2H-pyran-2-yl)-2,5,8,11-tetraoxatridecan-13-yl)propanamide)]: the Kd is less than 10 µM.

Take `O=C(NC[C@H]1OC[C@H](Nc2cncc(C(F)(F)F)n2)[C@@H](O)[C@H]1O)c1ccc2c(n1)CCCN2` [A88, N-(((2R,3R,4R,5S)-3,4-dihydroxy-5-((6-(trifluoromethyl)pyrazin-2-yl)amino)tetrahydro-2H-pyran-2-yl)methyl)-5,6,7,8-tetrahydro-1,5-naphthyridine-2-carboxamide]: the equilibrium dissociation constant (Kd) was less than 10 µM.

For the compound `O=C(NC[C@H]1OC[C@H](Nc2cncc(C(F)(F)F)n2)[C@@H](O)[C@H]1O)c1cnc(-c2ccccc2)nc1` [A89], the Kd was less than 10 µM.

`O[C@@H]1[C@H](O)[C@@H](Nc2cncc(C(F)(F)F)n2)CO[C@@H]1CN1CCNCC1` [A91, (2R,3R,4R,5S)-2-(piperazin-1-ylmethyl)-5-((6-(trifluoromethyl)pyrazin-2-yl)amino)tetrahydro-2H-pyran-3,4-diol]: the Kd was less than 10 µM.

For the compound `NC1CC2(C1)CC(NC(=O)C[C@H]1OC[C@H](Nc3cncc(C(F)(F)F)n3)[C@@H](O)[C@H]1O)C2` (stereo partly drawn) [A92, N-(6-aminospiro[3.3]heptan-2-yl)-2-((2R,3R,4R,5S)-3,4-dihydroxy-5-((6-(trifluoromethyl)pyrazin-2-yl)amino)tetrahydro-2H-pyran-2-yl)acetamide], the Kd was less than 10 µM.
